Test results: EP1561465A2, “Methods of use of fluoroquinolone compounds against bacteria” (LG Life Sciences, Ltd., priority 1999, dated 2001)
In brackets after ≈: the same amount, converted by molar mass. Read-outs that look alike come from different tables or passages of the source.

Key:
Yersinia enterocolitica = experiment: MIC by agar dilution (NCCLS M7-A4), 288 enteropathogenic isolates, eight quinolones; type: cell-based; settings: Yersinia enterocolitica (n = 22)
Shigella spp. = experiment: as above; type: cell-based; settings: Shigella spp. (n = 21)
Aeromonas spp. = experiment: as above; type: cell-based; settings: Aeromonas spp. (n = 16)
[1] = system: Streptococcus pneumoniae and Haemophilus influenzae; experiment: MIC by broth microdilution (NCCLS), all isolates pooled; type: cell-based
Staphylococcus aureus = experiment: MIC by agar macrodilution (NCCLS), 373 Gram positive isolates, Athens 1998; type: cell-based; settings: Methicillin-susceptible Staphylococcus aureus (n = 85)
Salmonella spp. = experiment: MIC by agar dilution (NCCLS M7-A4), 288 enteropathogenic isolates, gemifloxacin and 15 other antimicrobials; type: cell-based
Campylobacter jejuni = experiment: as above; settings: for MIC: Campylobacter jejuni

Cc1c(F)c(N2CCNC(C)C2)cc2c1c(=O)c(C(=O)O)cn2C1CC1 (centres unmarked) [Grepafloxacin, grepafloxacin]
% Susceptible (Yersinia enterocolitica): 100%
MIC50 (Yersinia enterocolitica): 0.03 µg/mL (≈ 0.0835 µM)
MIC90 (Yersinia enterocolitica): 0.03 µg/mL (≈ 0.0835 µM)
MIC Range (Yersinia enterocolitica): ≤0.015 to 0.25 µg/mL
% Susceptible (Shigella spp.): 100%
MIC50 (Shigella spp.): ≤ 0.015 µg/mL
MIC90 (Shigella spp.): 0.03 µg/mL (≈ 0.0835 µM)
MIC Range (Shigella spp.): ≤0.015 to 0.03 µg/mL
% Susceptible (Aeromonas spp.): 100%
MIC50 (Aeromonas spp.): 0.03 µg/mL (≈ 0.0835 µM)
MIC90 (Aeromonas spp.): 0.06 µg/mL (≈ 0.167 µM)
MIC Range (Aeromonas spp.): ≤0.015 to 0.12 µg/mL
MIC90 ([1]; all (380) isolates tested (235 S. pneumoniae, 145 H. influenzae)): 0.12 µg/mL (≈ 0.334 µM)
MIC90 ([1]; all isolates tested (602)): 0.12 µg/mL (≈ 0.334 µM)
MIC Range (Staphylococcus aureus): 0.06 to 32 µg/mL
MIC50 (Staphylococcus aureus; read-out: MIC50): 0.125 µg/mL (≈ 0.348 µM)
MIC90 (Staphylococcus aureus; read-out: MIC90): 0.25 µg/mL (≈ 0.696 µM)
MIC (Salmonella spp.; S. hadar(2), isolates with MICs for ciprofloxacin ≥[…], read-out: MIC): 1 mg/L (≈ 2.78 µM)
MIC (Salmonella spp.; S. newport(1), isolate with MIC for ciprofloxacin ≥[…], read-out: MIC): 1 mg/L (≈ 2.78 µM)
MIC (Salmonella spp.; S. virchow(2), isolates with MICs for ciprofloxacin ≥[…], read-out: MIC): 0.25 mg/L (≈ 0.696 µM)
Rates of non-susceptible microorganisms (Salmonella spp.; Salmonella spp.): 1%
MIC (mg/L) Range (Salmonella spp.; Salmonella spp. N= 106): 0.03 to 2 mg/L
MIC (Salmonella spp.; Salmonella, S. tshiongwe(1), isolate with MIC for ciprofloxacin ≥[…], read-out: MIC): 2 mg/L (≈ 5.56 µM)
MIC (Salmonella spp.; Salmonella, read-out: MIC (mg/L) 50%, Salmonella spp. N= 106): 0.06 mg/L (≈ 0.167 µM)
MIC (Salmonella spp.; Salmonella, read-out: MIC (mg/L) 90%, Salmonella spp. N= 106): 0.25 mg/L (≈ 0.696 µM)
MIC (Salmonella spp.; Salmonella, the non-susceptible Salmonella spp. isolate(s) (1% of 106), read-out: MIC): 2 mg/L (≈ 5.56 µM)
MIC (mg/L) Range (Campylobacter jejuni; Campylobacter jejuni N= 91): 0.03 to 128 mg/L
MIC (Campylobacter jejuni; read-out: MIC (mg/L) 50%): 32 mg/L (≈ 89 µM)
MIC (Campylobacter jejuni; read-out: MIC (mg/L) 90%): 64 mg/L (≈ 178 µM)
